Assay results: patent US20120258944A1, “ANTIOXIDANTS FOR USE IN THERAPY” (priority 2009, published 2012)

What was measured:
[1] = test system: MG-63, HEK-293, SHSY-5y, MRC-5 and CaCo-2-cells; assay: Alamar Blue cell viability/proliferation assay; type: cell-based, human; conditions: 60 micro-M, day 1 to day 7
Description: Alamar Blue is a non-toxic metabolic indicator for viable cells. Following uptake, the dye becomes reduced and causes a change in the colour of the cell. The colour change correlates reasonably well with the number of living cells in the sample.
Cells w/o antioxidant were used as controls.
Alamar Blue is a non-toxic metabolic indicator for viable cells. Upon uptake into the cell the dye becomes reduced and changes colour. The colour change correlates approximately with the number of living cells in the sample.

[2] = test system: human umbilical vein endothelial cells (HUVEC); assay: XTT in vitro toxicology test in human umbilical vein endothelial cells; type: cell-based; conditions: for toxic concentration: HUVEC; for relative toxicity among the compounds: human endothelial cells, up to 72 hours
Protocol: As a negative control, cells incubated with medium containing 0.5% DMSO (corresponding to the highest DMSO concentration above) was used. As a positive control, cells were incubated in the presence of 20% EtOH.
After the incubation with the compounds, the wells were washed with PBS to remove substances which could interfere with the assay. 40 μl of fresh medium 200 without phenol red was added together with 10 μl XTT substance (according to the manufacturer's instructions). The plates were incubated for 8 hrs and the colour development was monitored by measuring the absorbance at 450 nm.
After incubation, the number of viable cells was assessed by observing the amount of metabolized XTT (2,3-bis[2-methoxy-4-nitro-5-sulphophenyl]-2H-tetrazolium-5-carboxyanilide inner salt).

[3] = test system: human neutrophils and PBMCs, rat neutrophils and PBMCs, human PLB-985 cell line; assay: Extracellular ROS, isoluminol luminescence, PMA or fMLF stimulated cells; type: cell-based; conditions: PMA or fMLF 30 ng/ml; compounds 120 to 0 microM; FIG. 1-4, 9-12, 14-17
Protocol: (§1) Validation was performed by stimulating cells with PMA and fMLF. When treated with the antioxidants, altered level of ROS production from the cells was measured using luminometry. Both intracellular and extracellular effect on ROS on the cells was analyzed using isoluminol (extracellular) and luminol (intracellular when co-administered with SOD and catalase) (Dahlgren et al. “Respiratory burst in human neutrophils”, Journal of Immunological Methods 232 1999; 3-14).
The isoluminol reagent buffer was made of HBSS buffer (with Ca^2+), Isoluminol and HRP.
(§2) 1) Add 25 microL of antioxidants to assay plate to get proper concentrations in a total reaction volume of 100 micro-L. 2) Add 25 microL of PMA (120 ng/ml) and fMLF (120 ng/ml) to assay plate to get concentration of 30 ng/ml in a total reaction volume of 100 microL. 3) Add 50 microL of cell suspension (2 million cells/ml) to each well. Immediately after addition of cell suspension initiate luminescence measurement; the reaction starts at once when the cells are added to the assay plate. Measurement points are taken at 1-minute intervals for 25 minutes. Data is presented as AUC (Area Under Curve) by a summary of all collected measurements for each well.
FIG. 1: Extracellular ROS analyzed by Isoluminol induced luminescence in human Neutrophils. ROS induced with PMA (30 ng/ml) with 200, 100 or 0 microM NAC. Concentrations of compounds 120, 60, 30 and 0 microM final concentrations.
FIG. 9: Extracellular ROS analyzed by Isoluminol induced luminescence in rat Neutrophils. ROS induced with PMA (30 ng/ml) with 200, 100 or 0 microM NAC. Concentrations of compounds 120, 60, 30 and 0 microM final concentrations.
FIG. 11: Extracellular ROS analyzed by Isoluminol induced luminescence in human PLB-985 cell line. ROS induced with PMA (30 ng/ml) with 200, 100 or 0 microM NAC. Concentrations of compounds 120, 60, 30 and 0 microM final concentrations.

[4] = test system: human Neutrophils and human PBMCs; assay: Intracellular ROS, luminol luminescence with SOD and catalase, PMA or fMLF stimulated cells; type: cell-based; conditions: PMA or fMLF 30 ng/ml; compounds 120, 60, 30 microM; FIG. 5-8
Protocol: as §1
The luminol reagent buffer is made of HBSS buffer (with Ca^2+), luminol and SOD/Catalase.
as §2
FIG. 5: Intracellular ROS analyzed by Luminol (intracellular ROS) induced luminescence in human Neutrophils. ROS induced with PMA (30 ng/ml) with 200, 100 or 0 microM NAC. Concentrations of compounds 120, 60, 30 and 0 microM final concentrations.
FIG. 6: Intracellular ROS analyzed by Luminol (intracellular ROS) induced luminescence in human Neutrophils. ROS induced with fMLF (30 ng/ml) with 200, 100 or 0 microM NAC. Concentrations of compounds 120, 60, 30 and 0 microM final concentrations.
FIG. 7: Intracellular ROS analyzed by Luminol (intracellular ROS) induced luminescence in human PBMCs. ROS induced with PMA (30 ng/ml) with 200, 100 or 0 microM NAC. Concentrations of compounds 120, 60, 30 and 0 microM final concentrations.
FIG. 8: Intracellular ROS analyzed by Luminol (intracellular ROS) induced luminescence in human PBMCs. […]

[5] = test system: human umbilical vein endothelial cells (HUVEC); assay: Visual evaluation of HUVECs under the microscope (dislodging from the surface); conditions: HUVEC
Protocol: Cells were harvested and resuspended in supplemented medium 200 without phenol red. 50 000 cells were added in duplicates to 96-well plates. The compounds were tested on HUVECs according to the following concentrations.
The compounds were diluted in Medium 200 from the 0.1M stock solution. The toxic effects of the compounds were tested after 24 hrs, 48 hrs and 72 hrs.
By visually looking at the cells under the microscope and estimating the dislodging from the surface, the state of the cells was evaluated.

PLB985 cells = assay: Resazurin based in vitro toxicology assay (TOX8); type: cell-based, human; conditions: PLB985, 3 hours, 120 μM
Protocol: The viability of cells treated with the compounds was also analyzed using a Resazurin based in vitro Toxicology Assay Kit (SigmaAldrich TOX8). Resazurin systems measure the metabolic activity of living cell. Resazurin in its oxidized form (blue) is reduced (red) by living cells and the amount of dye conversion is measured fluorometrically or spectrophotometrically indicating the degree of cytotoxicity.
1) 75 micro-l of PLB985 cells (1 million cells/ml) is mixed with 25 micro-l of Compounds 1, 2, 3 and D (480, 120, 15 and 0.48 micro-M) in a 96 well plate in duplicates. 2) 10 micro-L of Resazurin solution is added to each well and the plate is incubated at 37° C. for 3 hours. 3) Spectrophotometrical analysis is performed in plate reader at 600 and 690 nm.
FIG. 18: Cell viability of compounds in human PLB-985 cell line. Concentrations of compounds 120; 60; 30; 3.75; 0.12 and […] final concentrations. Measurement that indicates cell cytotoxicity (In vitro toxicology assay, TOX-8). The bars show increased level of cytotoxicity (analysis of absorbance of 600 nm substracted with absorbance 690 nm).

[6] = cited from earlier work; for Inhibited Rate of Linoleic Acid Peroxidation (Rinh): two-phase model, N-acetylcysteine in the aqueous phase
liver microsomes = conditions: cited from earlier work
kidney slice = assay: Organ model TBARS experiment (TBA-MDA assay) in kidney slices
[7] = ABTS radical cation assay (TEAC) in aqueous PBS buffer; conditions: 6.08 micro-M, PBS buffer pH 7.4, after 5 min
Protocol: In order to investigate its aqueous phase performance, we thought that it would be interesting to determine its Trolox Equivalent Antioxidant Capacity (TEAC) (Free Rad. Biol. Med. 1999, 26, 1231-1237) which has been used to quantify the antioxidant activity of biological fluids, extracts and pure compounds. The TEAC value is defined as the concentration of Trolox which has an equivalent antioxidant potential as a 1 mM solution of the compound under investigation (Free Rad. Biol. Med. 1996, 20, 933-956).
A 2,2′-azinobis(3-ethylbenzothiazoline-6 sulphonic acid radical cation (ABTS•+) assay was used to determine relative TEAC values. To a preformed solution of ABTS•+ in PBS buffer, pH 7.4, with an absorbance slightly above 0.7 were added various amounts (3-30 microM) of organoselenium compound 1, Trolox, sodium ascorbate and N-acetylcysteine. The absorbance at 734 inn was recorded immediately after mixing and then every minute for the next 8 minutes.
Antioxidant activity as determined by the capacity of the antioxidant to decolorize the ABTS^+ radical cation was determined essentially as described in the literature (Acc. Chem. Res. 1986, 19, 194-201). […] In a typical experiment, the antioxidant (1.52 micro-L of a 3.00 mM solution in MeOH or water; final concentration=6.08 micro-M) was syringed into 0.750 mL of the ABTS^+ radical cation solution. After initial mixing, the absorbance was recorded every minute for the next eight minutes.

[8] = coupled reductase method; cited from earlier work

For `Cc1c(C)c2c(c(C)c1O)CCC(C)(C(=O)O)O2` (stereo not shown) [Trolox], the “cell growth (Alamar Blue)” value [1] was “normal cell growth patterns”.
`CC[Te]c1nc(C)cc(C)c1O` [Comparative Compound 2] gave a toxic concentration ([2]; 24 hrs incubation) of 500 µM, a toxic concentration ([2]; 48 hrs incubation) of 200 µM and a toxic concentration ([2]; 72 hrs incubation) of 200 µM. For the same molecule, the “relative toxicity among the compounds” value [2] was “slightly more toxic than Compounds 1”, the “antioxidative effect on extracellular ROS” value [3] was “less potent” and the “antioxidative effect on intracellular ROS” value [4] was “lesser effect”. For the same molecule, the “concentration at which cells were affected (visual)” value (shortened to “concentration … (visual)”) ([5]; 24 hrs) was 500 µM, the “concentration … (visual)” value ([5]; 48 hrs) was 200 µM and the “cell viability at highest concentration” value (PLB985 cells) was “decrease in cell viability”. For the same molecule, the “Inhibited Rate of Linoleic Acid Peroxidation (Rinh)” value [6] was 22 µM/h.
For `Oc1ccc2c(c1)CCS2` [X═S], the “inhibition of lipid peroxidation in liver microsomes” value (“inhibition of lipid peroxidation” below) (liver microsomes) is given as “not effective”.
With `CCCCCCCC[Te]c1nc(C)cc(C)c1O` [Comparative Compound 3] the toxic concentration ([2]; 24 hrs incubation) was 100 µM, the toxic concentration ([2]; 48 hrs incubation) was 100 µM and the toxic concentration ([2]; 72 hrs incubation) was 100 µM. The “relative toxicity among the compounds” value [2] was “most toxic compound”, the “antioxidative effect on extracellular ROS” value [3] was “less potent” and the “antioxidative effect on intracellular ROS” value [4] was “lesser effect”. The “concentration … (visual)” value ([5]; 24 hrs) was 100 µM, the “cell viability at highest concentration” value (PLB985 cells) was “decrease in cell viability” and the “Inhibited Rate of Linoleic Acid Peroxidation (Rinh)” value [6] was 8 µM/h.
For `Cc1cc2c(c(C)c1O)CC(C)[Se]2` (stereo not shown) [Compound 6], the “potency as inhibitor of TBARS production compared with references” value (kidney slice) was “more potent inhibitors of TBARS production than Trolox and N-acetylcysteine” and the “concentration able to inhibit 50% of the TBARS formation in the control incubation” value (kidney slice; re-oxygenation after Argon) was “sub-micromolar”.
Work on `CC(=O)N[C@@H](CS)C(=O)O` [N-acetylcysteine] yielded a TEAC value [7] of 2.4.
In the case of `Oc1ccc2c(c1)CCO2` [X═O], the “inhibition of lipid peroxidation” value (liver microsomes) is listed as “not effective”.
For `Oc1ccc2c(c1)CC[Te]2` [X═Te], the “catalyst activity in the reaction between glutathione and hydroperoxide (thiol peroxidase activity)” value [8] is given as “highly active catalyst”, the antioxidant capacity ([6]; two-phase system, presence of a reducing agent) is given as “best antioxidant capacity” and the “inhibition of lipid peroxidation” value (liver microsomes) is given as “potent inhibitor”.
For `Oc1ccc2c(c1)CC[Se]2` [X═Se], the “catalyst activity in the reaction between glutathione and hydroperoxide (thiol peroxidase activity)” value [8] is listed as “insignificant”, the “inhibition of azo-initiated peroxidation of linoleic acid” value ([6]; two-phase system, absence of thiol reducing agent) is listed as “poor inhibitor” and the “inhibition of lipid peroxidation” value (liver microsomes) is listed as “not effective”.
